The NIST ThermoML archive (doi:10.1021/je900290w)
Numbers after ± are expanded uncertainties.

Test: cn = amount concentration of the nth substance listed, in mol/dm3

CCCCCCCCCCCCCCCCn1cc[n+](C)c1.[Br-] [1-hexadecyl-3-methylimidazolium bromide] + O
surface tension liquid-gas [mN/m]
Conditions	278.15 K	288.15 K	298.15 K	308.15 K	318.15 K	328.15 K
c1 = 5e-06	69.16 ± 3.4	66.26 ± 3.3	63.93 ± 3.2	61.53 ± 3.1	58.5 ± 2.9	55.05 ± 2.8
c1 = 2e-05	63.91 ± 3.2	61.84 ± 3.1	60 ± 3	58.48 ± 2.9	54.53 ± 2.8	51.85 ± 2.6
c1 = 0.0001	56.17 ± 2.8	52.62 ± 2.7	51.14 ± 2.6	49.46 ± 2.5	47.36 ± 2.4	45.42 ± 2.3
c1 = 0.0002	50.9 ± 2.6	48.63 ± 2.5	46.77 ± 2.4	45.39 ± 2.3	42.7 ± 2.2	42.13 ± 2.2
c1 = 0.0003	46.66 ± 2.4	43.95 ± 2.3	43.38 ± 2.2	41.17 ± 2.1	39.84 ± 2.1	39.44 ± 2.1
c1 = 0.0004	42.78 ± 2.2	41.32 ± 2.2	39.38 ± 2.1	38.02 ± 2	37.93 ± 2	38 ± 2
c1 = 0.0005	39.25 ± 2.1	37.45 ± 2	37.26 ± 2	36.21 ± 1.9	36.75 ± 1.9	37.07 ± 2
c1 = 0.0008	38.25 ± 2	37.54 ± 2	37.37 ± 2	36.14 ± 1.9	36.11 ± 1.9	36.2 ± 1.9
c1 = 0.0011	38.38 ± 2	37.4 ± 2	37.09 ± 2	36.28 ± 1.9	36.18 ± 1.9	36.25 ± 1.9
c1 = 0.002	38.11 ± 2	37.87 ± 2	37.19 ± 2	36.97 ± 2	36.12 ± 1.9	36.15 ± 1.9
c1 = 0.004	37.61 ± 2	37.33 ± 2	37.21 ± 2	36.37 ± 1.9	36.04 ± 1.9	35.98 ± 1.9

CCCCCCCCCCCCCCn1cc[n+](C)c1.[Br-] [1-methyl-3-tetradecylimidazolium bromide] + O
surface tension liquid-gas [mN/m]
Conditions	c1 = 5e-05	c1 = 0.0001	c1 = 0.0003	c1 = 0.0005	c1 = 0.001	c1 = 0.002	c1 = 0.004	c1 = 0.006	c1 = 0.008	c1 = 0.01
278.15 K	64.69 ± 3.2	64.07 ± 3.2	61.72 ± 3.1	55.17 ± 2.8	50.32 ± 2.6	41.28 ± 2.2	38.44 ± 2	38.68 ± 2	38.88 ± 2.1	38.88 ± 2.1
288.15 K	62.69 ± 3.1	62.07 ± 3.1	59.72 ± 3	53.17 ± 2.7	48.32 ± 2.5	40.28 ± 2.1	37.94 ± 2	38.18 ± 2	38.38 ± 2	38.38 ± 2
298.15 K	61.26 ± 3.1	60.88 ± 3	57.1 ± 2.9	52.79 ± 2.7	47.37 ± 2.4	39.48 ± 2.1	37.81 ± 2	37.73 ± 2	37.57 ± 2	37.57 ± 2
308.15 K	59.5 ± 3	58.59 ± 2.9	54.93 ± 2.8	51.51 ± 2.6	45.26 ± 2.3	39.15 ± 2.1	37.81 ± 2	37.51 ± 2	37.67 ± 2	37.6 ± 2
318.15 K	57.16 ± 2.9	55.92 ± 2.8	52.9 ± 2.7	49.56 ± 2.5	43.88 ± 2.3	39.15 ± 2.1	37.12 ± 2	37.13 ± 2	37.12 ± 2	37.13 ± 2
328.15 K	54.16 ± 2.7	52.7 ± 2.7	50.17 ± 2.6	46.39 ± 2.4	42.75 ± 2.2	38.28 ± 2	36.2 ± 1.9	36.32 ± 1.9	36.58 ± 1.9	36.45 ± 1.9

CCCCCCCCCCCCn1cc[n+](C)c1.[Br-] [1-dodecyl-3-methylimidazolium bromide] + O
surface tension liquid-gas [mN/m]
Conditions	c1 = 0.0001	c1 = 0.0005	c1 = 0.0015	c1 = 0.005	c1 = 0.01	c1 = 0.02	c1 = 0.03	c1 = 0.04	c1 = 0.05
278.15 K	64.79 ± 3.2	61.21 ± 3.1	56.82 ± 2.9	45.33 ± 2.3	37.64 ± 2	37.72 ± 2	37.73 ± 2	37.53 ± 2	37.59 ± 2
288.15 K	62.93 ± 3.1	60.86 ± 3	56.68 ± 2.9	44.27 ± 2.3	37.52 ± 2	37.63 ± 2	37.41 ± 2	37.77 ± 2	37.61 ± 2
298.15 K	62.21 ± 3.1	59.84 ± 3	55.19 ± 2.8	43.81 ± 2.3	37.45 ± 2	37.41 ± 2	37.15 ± 2	37.23 ± 2	37.26 ± 2
308.15 K	60.48 ± 3	58.62 ± 2.9	55.18 ± 2.8	44.47 ± 2.3	37.18 ± 2	37.55 ± 2	37.38 ± 2	37.42 ± 2	37.23 ± 2
318.15 K	58.84 ± 2.9	56.56 ± 2.9	53.88 ± 2.7	43.89 ± 2.3	36.92 ± 2	37.12 ± 2	37.47 ± 2	37.3 ± 2	37.06 ± 2
328.15 K	57.61 ± 2.9	55.07 ± 2.8	50.63 ± 2.6	42.36 ± 2.2	37.64 ± 2	37.03 ± 2	37.16 ± 2	37.06 ± 2	37.09 ± 2
